Values quoted from earlier work, collected in patent US20210290548A1, “FORMULATIONS OF RALTEGRAVIR” (Merck Sharp & Dohme Corp., priority 2018, published 2021).
Read-outs that look alike come from different tables or passages of the source.

**Q.** Which results are given for Cc1nnc(C(=O)NC(C)(C)c2nc(C(=O)NCc3ccc(F)cc3)c([O-])c(=O)n2C)o1.[K+] [Raltegravir potassium, N-[(4-Fluorophenyl)methyl]-1,6-dihydro5-hydroxy-1-methyl-2-[1-methyl-1-[[(5-methyl-1,3,4-oxadiazol-2-yl)carbonyl]amino]ethyl]-6-oxo-4pyrimidinecarboxamide monopotassium salt]?
**A.** solubility (acetonitrile): very slightly soluble; solubility (ethanol): very slightly soluble; solubility (isopropanol): insoluble; solubility (methanol): slightly soluble; solubility (water): soluble
